Laboratory results published in the supplement of paper PMC10307832.

Legend:
Assay in all cases: relative viability (nuclei count vs DMSO), 5 days (fraction); higher = more cells survive
[1] = compound: C[C@@H](Oc1cc(-c2cnn(C3CCNCC3)c2)cnc1N)c1c(Cl)ccc(F)c1Cl [Crizotinib] + CS(=O)(=O)CCNCc1ccc(-c2ccc3ncnc(Nc4ccc(OCc5cccc(F)c5)c(Cl)c4)c3c2)o1 [Lapatinib] (partner 2 µM)
Method in brief: (§1)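 The day after seeding in 1536-well plates, lung cancer cell lines were treated by pin tool with a single drug, or with a fixed anchor-drug dose together with five library-drug doses (not always all listed) in √10 steps. After 5 days, a combined fix-and-stain solution (final 0.05% Triton X-100, 1% formaldehyde, 1 ug/ml Hoechst) was added. Nuclei counted on 4× images gave relative viability as treated counts over vehicle counts, reported as the median of duplicate plates.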

[2] = compound: C[C@@H](Oc1cc(-c2cnn(C3CCNCC3)c2)cnc1N)c1c(Cl)ccc(F)c1Cl [Crizotinib] + CS(=O)(=O)N1CCN(Cc2cc3nc(-c4cccc5[nH]ncc45)nc(N4CCOCC4)c3s2)CC1 [Pictilisib] (partner 1 µM)
Method in brief: as §1

[3] = compound: C[C@@H](Oc1cc(-c2cnn(C3CCNCC3)c2)cnc1N)c1c(Cl)ccc(F)c1Cl [Crizotinib] + Nc1nc2[nH]cc(CCc3ccc(C(=O)N[C@@H](CCC(=O)O)C(=O)O)cc3)c2c(=O)[nH]1 [Pemetrexed] (partner 0.2 µM)
Method in brief: as §1

[4] = compound: O=C(c1cc(Cc2n[nH]c(=O)c3ccccc23)ccc1F)N1CCN(C(=O)C2CC2)CC1 [Olaparib] + CS(=O)(=O)CCNCc1ccc(-c2ccc3ncnc(Nc4ccc(OCc5cccc(F)c5)c(Cl)c4)c3c2)o1 [Lapatinib] (partner 2 µM)
Method in brief: as §1

[5] = compound: O=C(c1cc(Cc2n[nH]c(=O)c3ccccc23)ccc1F)N1CCN(C(=O)C2CC2)CC1 [Olaparib] + Nc1nc2[nH]cc(CCc3ccc(C(=O)N[C@@H](CCC(=O)O)C(=O)O)cc3)c2c(=O)[nH]1 [Pemetrexed] (partner 0.2 µM)
Method in brief: as §1

NCI-H1793
relative viability ([1]; first compound 0.01 µM): 0.68
relative viability ([1]; first compound 0.03162 µM): 0.737
relative viability ([1]; first compound 0.1 µM): 0.749
relative viability ([1]; first compound 1 µM): 0.802
relative viability ([2]; first compound 0.01 µM): 0.355
relative viability ([2]; first compound 0.03162 µM): 0.385
relative viability ([2]; first compound 0.1 µM): 0.339
relative viability ([2]; first compound 1 µM): 0.364
relative viability ([3]; first compound 0.03162 µM): 1.04
relative viability ([3]; first compound 0.1 µM): 0.902
relative viability ([3]; first compound 1 µM): 1.2
relative viability ([4]; first compound 0.08 µM): 0.641
relative viability ([4]; first compound 0.253 µM): 0.5
relative viability ([4]; first compound 2.53 µM): 0.578
relative viability ([4]; first compound 8 µM): 0.649
relative viability ([5]; first compound 0.08 µM): 0.647
relative viability ([5]; first compound 0.253 µM): 0.652
relative viability ([5]; first compound 2.53 µM): 0.841
relative viability ([5]; first compound 8 µM): 0.79
